The values that follow come from EPA's ToxRefDB 2.

As usually defined, the LOAEL is the lowest tested level that showed an adverse finding. A word on the NOAEL: it is the highest dose or exposure tested at which no adverse effect was seen.

Data set [1] relates to rat. The note with it: Subchronic oral toxicity in rodents, fischer, Feed, dose end: 13 week, group: systemic.
Data set [2] concerns dog. The note with it: Chronic toxicity; beagle; Oral; Feed; dose end: 52 week; group: systemic; systemic / organ weight / thyroid gland / absolute + systemic / organ weight / thyroid gland / relative to body weight + systemic / ….
The test system of data set [3] is rat. As to conditions: Multigenerational reproductive toxicity study, sprague dawley, Oral, Feed, dose end: 2 generation, group: parental.
Data set [4] deals with mouse. As to conditions: Subchronic oral toxicity in rodents, b6c3f1, Gavage/Intubation, dose end: 13 week, group: systemic.
Data set [5] has as its system rat. The note with it: Combined chronic toxicity/carcinogenicity; fischer; Oral; Gavage/Intubation; dose end: 2 year; group: systemic; systemic / in life observation / mortality / mortality + systemic / pathology microscopic / lung / foreign body + systemic / pathology ….
Data set [6] relates to mouse. The note with it: Carcinogenicity, b6c3f1, Oral, Gavage/Intubation, dose end: 2 year, group: systemic.
The subject of data set [7] is rat. The note with it: Subchronic oral toxicity in rodents, fischer, Gavage/Intubation, dose end: 13 week, group: systemic.
Data set [8] relates to rabbit. As to conditions: Prenatal developmental toxicity study; new zealand white; Oral; Gavage/Intubation; dose end: 19 GD; group: maternal; systemic / in life observation / body weight / body weight + systemic / in life observation / body weight / body weight gain + systemic / in….
The test system of data set [9] is rat. The note with it: Prenatal developmental toxicity study, other, Oral, Gavage/Intubation, dose end: 17 GD.
Data set [10] relates to rat. As to conditions: Prenatal developmental toxicity study, sprague dawley, Oral, Gavage/Intubation, dose end: 17 GD.
The test system of data set [11] is rabbit. As to conditions: Prenatal developmental toxicity study, new zealand white, Oral, Gavage/Intubation, dose end: 19 GD.
The subject of data set [12] is mouse. The note with it: Sub-acute repeat dose toxicity; b6c3f1; Oral; Feed; dose end: 14 day; group: systemic; systemic / in life observation / clinical signs / fur (altered appearance) + systemic / in life observation / mortality / mortality.
Data set [13] has as its system mouse. As to conditions: Carcinogenicity; b6c3f1; Oral; Feed; dose end: 103 week; group: systemic; systemic / in life observation / body weight / body weight.
The test system of data set [14] is rat. The note with it: Carcinogenicity; fischer; Oral; Feed; dose end: 103 week; group: systemic; systemic / in life observation / body weight / body weight + systemic / pathology microscopic / eye / cataract + systemic / pathology ….
For data set [15], the system named is rat. The note with it: Subchronic oral toxicity in rodents, fischer, Feed, dose end: 13 week, group: systemic. This is another data set of the same source.
For data set [16], the system named is rat. The note with it: Sub-acute repeat dose toxicity; fischer; Oral; Feed; dose end: 14 day; group: systemic; systemic / in life observation / body weight / body weight gain + systemic / in life observation / clinical signs / urogenital staining + ….
Data set [17] has as its system rat. The note with it: Sub-acute repeat dose toxicity; Oral; Gavage/Intubation; dose end: 7 day; group: systemic; systemic / hematology / erythrocyte (rbc) count differential / erythrocyte (rbc) + systemic / hematology / hematocrit (hct) / hematocrit (….
Data set [18] concerns rat. As to conditions: Sub-acute repeat dose toxicity, sprague dawley, Oral, Gavage/Intubation, dose end: 10 day, group: systemic.
In data set [19] the test system is dog. The note with it: Subchronic oral toxicity in nonrodent, beagle, Gavage/Intubation, dose end: 91 day, group: systemic.
In data set [20] the test system is rat. The note with it: Subchronic oral toxicity in rodents, sprague dawley, Gavage/Intubation, dose end: 93 day, group: systemic.
The test system of data set [21] is rat. As to conditions: Sub-acute repeat dose toxicity, sprague dawley, Oral, Gavage/Intubation, dose end: 14 day, group: systemic.
The subject of data set [22] is dog. As to conditions: Sub-acute repeat dose toxicity; beagle; Oral; Gavage/Intubation; dose end: 14 day; group: systemic; systemic / clinical chemistry / [other] / [other].
The mark [23] stands for this setting: systemic / in life observation / body weight / body weight + systemic / in life observation / food consumption / food consumption + systemic….
Setting [24] is: systemic / in life observation / body weight / body weight + systemic / pathology microscopic / thyroid gland / hyperplasia.
[25] abbreviates: systemic / pathology microscopic / thyroid gland / hyperplasia + systemic / pathology microscopic / thyroid gland / hypertrophy + systemic….
The mark [26] stands for this setting: systemic / in life observation / body weight / body weight.
Where [27] appears, read: systemic / in life observation / body weight / body weight + systemic / in life observation / clinical signs / unsteady gait.
The mark [28] stands for this setting: systemic / pathology microscopic / brain / corpora amylacea + systemic / pathology microscopic / adrenal gland / adenoma + systemic / ….
Setting [29] is: systemic / in life observation / body weight / body weight + systemic / in life observation / clinical signs / labored respiration + ….
The mark [30] stands for this setting: group: developmental, systemic / in life observation / body weight / fetal weight.
The mark [31] stands for this setting: group: maternal, systemic / in life observation / body weight / body weight + systemic / in life observation / food consumption / food consumption.
Where [32] appears, read: group: maternal, systemic / in life observation / body weight / body weight + systemic / in life observation / food consumption / food consumption + ….
[33] abbreviates: group: maternal, systemic / in life observation / food consumption / food consumption.
Setting [34] is: group: maternal, systemic / in life observation / food consumption / food consumption + reproductive / reproductive performance / postimplantation loss / ….
Where [35] appears, read: group: maternal, systemic / in life observation / body weight / body weight + systemic / in life observation / food consumption / food consumption + systemic….
The mark [36] stands for this setting: systemic / in life observation / body weight / body weight gain.
The mark [37] stands for this setting: systemic / in life observation / body weight / body weight gain + systemic / in life observation / clinical signs / skin discoloration + ….
The mark [38] stands for this setting: systemic / in life observation / body weight / body weight gain + systemic / in life observation / food consumption / food consumption.
Setting [39] is: systemic / in life observation / food consumption / food consumption.
[40] abbreviates: systemic / in life observation / clinical signs / abnormal feces + systemic / in life observation / clinical signs / emesis.
[41] abbreviates: systemic / in life observation / clinical signs / abnormal feces + systemic / in life observation / clinical signs / emesis + systemic / ….
The mark [42] stands for this setting: systemic / in life observation / clinical signs / [other].
Setting [43] is: systemic / in life observation / clinical signs / [other] + systemic / in life observation / clinical signs / salivation.
Where [44] appears, read: systemic / clinical chemistry / [other] / [other] + systemic / in life observation / clinical signs / [other] + systemic / in life ….

Some results are limits rather than exact numbers.

As for `S=C1NCCN1` [Ethylene thiourea], the LOAEL is more than 150 mg/kg/day in [1] (setting [23]), 1.79 mg/kg/day in [2] and 1.25 mg/kg/day in data set [3] (systemic / pathology microscopic / thyroid gland / hyperplasia + systemic / pathology microscopic / thyroid gland / hypertrophy). Also, the NOAEL in data set [1] (setting [23]) was not below 150 mg/kg/day; in data set [2] it was 0.19 mg/kg/day; in data set [3] (setting [25]), 0.125 mg/kg/day. Also, the figures for the LEL in data set [1] (setting [24]), in [2] and in [3] (setting [25]) were 12 mg/kg/day, 1.79 mg/kg/day and 1.25 mg/kg/day, respectively. The values for the NEL in data set [1] (setting [24]), in data set [2] and in data set [3] (setting [25]) were less than 12 mg/kg/day, 0.19 mg/kg/day and 0.125 mg/kg/day, respectively.

Consider `OCc1ccccc1` [Benzyl alcohol], for which the LEL in [4] (setting [26]) was found to be 400 mg/kg/day; in data set [5], 200 mg/kg/day; in [6] (setting [28]), 200 mg/kg/day; in data set [7] (setting [26]) it was 200 mg/kg/day. In addition, the LOAEL in [4] (setting [27]) was 800 mg/kg/day; in [5] it was more than 400 mg/kg/day; in [6] (setting [28]) it was more than 200 mg/kg/day; in [7] (setting [26]), 400 mg/kg/day. Besides, the NEL is 200 mg/kg/day in [4] (setting [27]), less than 200 mg/kg/day in data set [5], 100 mg/kg/day in data set [6] (systemic / pathology microscopic / brain / corpora amylacea) and 100 mg/kg/day in [7] (setting [29]). The no-observed-adverse-effect level (NOAEL) in data set [4] (setting [27]) is 400 mg/kg/day; in data set [5], not below 400 mg/kg/day; in data set [6] (setting [28]), not below 200 mg/kg/day; in [7] (setting [29]) it was 200 mg/kg/day.

As for `CCCOc1sc(C(=O)N2CCC(c3cc(CN)ccc3F)CC2)c(C)c1Br.Cl` [AVE8923], the LEL in [8] is 50 mg/kg/day; in data set [9] (setting [30]) it was 100 mg/kg/day; in data set [9] (setting [32]), 100 mg/kg/day; in [10] (setting [30]), 75 mg/kg/day; in data set [10] (setting [33]) it was 75 mg/kg/day; in [11] (setting [30]) it was 200 mg/kg/day. The LEL in data set [11] (setting [35]) is 200 mg/kg/day. Besides, the LOAEL in data set [8] is more than 300 mg/kg/day; in data set [9] (setting [30]), 100 mg/kg/day; in data set [9] (setting [32]), 100 mg/kg/day; in [10] (setting [30]) it was 75 mg/kg/day; in [10] (setting [33]), 75 mg/kg/day; in [11] (setting [30]), more than 200 mg/kg/day. Moreover, in data set [11] (setting [35]), the lowest observed adverse effect level (LOAEL) was more than 200 mg/kg/day. For the same molecule, the NEL in data set [8] was less than 50 mg/kg/day; in data set [9] (setting [30]), 25 mg/kg/day; in [9] (setting [31]), 25 mg/kg/day; in data set [10] (setting [30]), 25 mg/kg/day; in data set [10] (setting [34]), 25 mg/kg/day; in [11] (setting [30]), 100 mg/kg/day. The NEL in data set [11] (setting [35]) was 100 mg/kg/day. The NOAEL is not below 300 mg/kg/day in data set [8]; 25 mg/kg/day in data set [9] (setting [30]); 25 mg/kg/day in data set [9] (setting [31]); 25 mg/kg/day in [10] (setting [30]); 25 mg/kg/day in data set [10] (setting [34]); not below 200 mg/kg/day in data set [11] (setting [30]). Besides, in data set [11] (setting [35]), the NOAEL is not below 200 mg/kg/day.

On to `CCCOC(=O)c1cc(O)c(O)c(O)c1` [Propyl gallate], for which the LEL is 7500 mg/kg/day in [12]; 900 mg/kg/day in [13]; 300 mg/kg/day in data set [14]; 625 mg/kg/day in data set [15] (setting [36]); 2500 mg/kg/day in data set [16]. Moreover, the LOAEL was more than 15000 mg/kg/day in data set [12]; 900 mg/kg/day in data set [13]; 300 mg/kg/day in [14]; 625 mg/kg/day in [15] (setting [36]); more than 5000 mg/kg/day in data set [16]. Besides, the NEL was 3750 mg/kg/day in data set [12]; less than 900 mg/kg/day in data set [13]; less than 300 mg/kg/day in data set [14]; 300 mg/kg/day in [15] (setting [37]); 1250 mg/kg/day in data set [16]. Moreover, the NOAEL is not below 15000 mg/kg/day in data set [12]; less than 900 mg/kg/day in [13]; less than 300 mg/kg/day in [14]; 300 mg/kg/day in data set [15] (setting [37]); not below 5000 mg/kg/day in data set [16].

As to `CCOc1ccc2[nH]cc(C(=O)NCc3ccccc3)c(=O)c2n1`, the LEL in [17] was 240 mg/kg/day; in data set [18] (setting [39]), 5 mg/kg/day; in [19] (setting [40]), 1 mg/kg/day; in data set [20] (setting [42]) it was 10 mg/kg/day; in [21] (setting [42]), 10 mg/kg/day; in data set [22] it was 26 mg/kg/day. In addition, the LOAEL in [17] was more than 240 mg/kg/day; in data set [18] (setting [38]) it was more than 160 mg/kg/day; in data set [19] (setting [41]), more than 80 mg/kg/day; in [20] (setting [43]) it was more than 240 mg/kg/day; in data set [21] (setting [44]), more than 198 mg/kg/day; in [22], more than 26 mg/kg/day. In addition, the NEL in data set [17] is less than 240 mg/kg/day; in [18] (setting [39]) it was less than 5 mg/kg/day; in data set [19] (setting [40]) it was less than 1 mg/kg/day; in data set [20] (setting [42]), less than 10 mg/kg/day; in [21] (setting [42]), less than 10 mg/kg/day; in data set [22], 6 mg/kg/day. The NOAEL in [17] was not below 240 mg/kg/day; in data set [18] (setting [38]), not below 160 mg/kg/day; in data set [19] (setting [41]), not below 80 mg/kg/day; in [20] (setting [43]) it was not below 240 mg/kg/day; in [21] (setting [44]), not below 198 mg/kg/day; in data set [22] it was not below 26 mg/kg/day.
